Legend:
[1] = target: human SOS1 (nucleotide exchange of K-Ras^G12C) (Homo sapiens, UniProt Q07889); assay: Biochemical assay 2: K-Ras^G12C activation assay by hSOS1 at high GTP concentration (HTRF); conditions: high GTP; read-out: Assay 2 (KRAS-Activation by SOS high GTP) activity expressed as IC50
Source text: Biochemical Assay 2: K-Ras^G12C Activation Assay by hSOS1 at High GTP Concentration
This assay quantifies human SOS1-mediated nucleotide exchange of K-Ras^G12C preloaded with a fluorescent […] and in presence of an excess of free GTP. Loaded hK-Ras^G12C generates a high HTRF-signal by energy transfer from antiGST-Terbium (FRET donor) bound to K-Ras to the loaded fluorescent GDP analog (FRET-acceptor). SOS1 activity exchanges the fluorescent GDP for non-fluorescent GTP and therefore leads to a reduction of the HTRF signal.
The fluorescent GDP-analog EDA-GDP-Dy647P1 (2′/3′-O-(2-Aminoethyl-carbamoyl)-guanosine-5′-diphosphate labelled with Dy647P1 (Dyomics GmbH, Germany)) was synthesized by Jena Biosciences GmbH (Germany) and supplied as a 1 mM aqueous solution.
Concentrations of protein batches used were optimized to be within the linear range of the HTRF signal.
Preparation of GST-tagged hK-Ras^Gl2C loaded with fluorescent nucleotide was performed as follows: incubation of 11.5 μM hK-Ras^Gl2C with 5-fold excess GDP-Dy647 nucleotide (54 μM) in 500 μl NLS-buffer (RAS activation Kit Jena Bioscience, Kat. #PR-950) for 10 min at 37° C. Addition of 20 μl 1 M MgCl2 (Sigma) to final 40 mM and store on ice. Purification into buffer (10 mM HEPES pH 7.4 (Applichem), 150 mM NaCl (Sigma), 5 mM MgCl2 (Sigma)) by use of a PD-Minitrap desalting column (GE Healthcare). Concentration of 1 ml purified hK-Ras-GDP-Dy647 is approx. 4-5 μM.
(§1) The assay buffer contained 10 mM HEPES pH 7.4 (Applichem), 150 mM NaCl (Sigma), 5 mM MgCl2 (Sigma), 1 mM DTT (Thermofisher), 0.05% BSA Fraction V, pH 7.0, (ICN Biomedicals), 0.0025% (v/v) Igepal (Sigma).
A Ras working solution was prepared in assay buffer containing typically 80 nM loaded GST-hK-RasG12C-EDA-GDP-Dy647P1 and 2 nM antiGST-Tb (Cisbio, France). A hSOS1 working solution was prepared in assay buffer containing typically 8 nM His-hSOS1 and 100 μM GTP (Jena Bioscience, Germany). An inhibitor control solution was prepared in assay buffer containing the same concentration of […].
(§2) Fifty nl of a 100-fold concentrated solution of the test compound in DMSO were transferred into a black microtiter test plate (384 or 1536, Greiner Bio-One, Germany). For this, either a Hummingbird liquid handler (Digilab, MA, USA) or an Echo acoustic system (Labcyte, CA, USA) was used.
(§3) All steps of the assay were performed at 20° C. A volume of 2.5 μl of the Ras working solution was added to all wells of the test plate using a Multidrop dispenser (Thermo Labsystems). After 2 min preincubation, 2.5 μl of the hSOS1 working solution were added to all wells except for those wells at the side of the test plate that were subsequently filled with 2.5 μl of the inhibitor control solution. After 20 min incubation the fluorescence was measured with a Pherastar (BMG, Germany) using the HTRF module (excitation 337 nm, emission 1: 620 nm, emission 2: 665 nm).
(§4) IC50 values were calculated by 4-Parameter fitting using a commercial software package (Genedata Screener, Switzerland).

[2] = target: K-Ras^G12C : hSOS1 interaction (Homo sapiens, UniProt Q07889); assay: Biochemical assay 1: K-Ras^G12C interaction assay with hSOS1 (HTRF); format: binding; conditions: read-out: Assay 1 (KRAS-SOS Interaction) activity expressed as IC50
Protocol: Biochemical assay 1: K-Ras^G12C Interaction Assay with hSOS1
This assay quantifies the equilibrium interaction of human SOS1 with K-Ras^Gl2C. Detection of the interaction is achieved by measuring homogenous time-resolved fluorescence resonance energy transfer (HTRF) from antiGST-Europium (FRET donor) bound to GST-K-Ras^G12C to anti-6His-XL665 bound to His-tagged hSOS1 (FRET-acceptor).
The assay buffer contained 5 mM HEPES pH 7.4 (Applichem), 150 mM NaCl (Sigma), 10 mM EDTA (Promega), 1 mM DTT (Thermofisher), 0.05% BSA Fraction V, pH 7.0, (ICN Biomedicals), 0.0025% (v/v) Igepal (Sigma) and 100 mM KF (FLUKA).
Concentrations of protein batches used were optimized to be within the linear range of the HTRF signal. A Ras working solution was prepared in assay buffer containing typically 10 nM GST-hK-RasG12C and 2 nM antiGST-Eu(K) (Cisbio, France). A SOS working solution was prepared in assay buffer containing typically 20 nM His-hSOS1 and 10 nM anti-6His-XL665 (Cisbio, France). An inhibitor control solution was prepared in assay buffer containing 10 nM anti-6His-XL665 without hSOS1.
as §2
as §3, with “the SOS” for “the hSOS1”, “After 60” for “After 20”
as §4

[3] = target: human SOS1 (loading of human K-Ras^G12C-GDP with fluorescent GTP-analog) (Homo sapiens, UniProt Q07889); assay: Biochemical assay 3: K-Ras^G12C activation assay by hSOS1 (HTRF); conditions: no GTP; read-out: Assay 3 (KRAS-Activation by SOS no GTP) activity expressed as IC50
Source text: Biochemical assay 3: K-Ras^G12C Activation Assay by hSOS1
K-Ras is a small GTPase that can bind GDP and GTP. The guanine nucleotide exchange factor SOS catalyzes the activation of K-Ras by promoting the exchange of GDP to GTP. SOS binds to K-Ras-GDP thereby opening the GDP-binding pocket to facilitate GDP release. Rebinding of excess nucleotide leads to dissociation of the K-Ras-SOS intermediate complex leaving K-Ras loaded with the nucleotide.
This assay quantifies human SOS1-mediated loading of human K-Ras^G12C-GDP with a fluorescent GTP-analog. Detection of successful loading is achieved by measuring homogenous time-resolved fluorescence resonance energy transfer (HTRF) from antiGST-Terbium (FRET donor) bound to GST-K-RasG12C to the loaded fluorescent GTP analog (FRET-acceptor).
The fluorescent GTP-analog EDA-GTP-Dy647P1 (2′/3′-O-(2-Aminoethyl-carbamoyl)-guanosine-5′-triphosphate labelled with Dy647P1 (Dyomics GmbH, Germany)) was synthesized by Jena Biosciences GmbH (Germany) and supplied as a 1 mM aqueous solution.
as §1
Concentrations of protein batches used were optimized to be within the linear range of the HTRF signal. A Ras working solution was prepared in assay buffer containing typically 100 nM GST-hK-RasG12C and 2 nM antiGST-Tb (Cisbio, France). A hSOS1 working solution was prepared in assay buffer containing typically 20 nM hSOS1 and 200 nM EDA-GTP-Dy647P1. An inhibitor control solution was prepared in assay buffer containing 200 nM EDA-GTP-Dy647P1 without hSOS1.
as §2
as §3, with “After 10” for “After 2”, “After 30” for “After 20”
as §4

For COc1cc2nc(C)nc(N[C@@H](C)c3ccc(-c4cncnc4)s3)c2cc1OC (racemic) [Example 42, 6,7-dimethoxy-2-methyl-N-{1-[5-(pyrimidin-5-yl)thiophen-2-yl]ethyl}quinazolin-4-amine], the IC50 [1] was 5.58 µM and the IC50 [2] was 4.27 µM.

COc1cc2nc(C)nc(N[C@@H](C)c3ccc(-c4ccc5c(ccn5C)c4)s3)c2cc1OC (racemic) [Example 49, 6,7-dimethoxy-2-methyl-N-{1-[5-{1-methyl-1H-indol-5-yl)thiophen-2-yl]ethyl}quinazolin-4-amine] was tested, and the IC50 [2] was 19.6 µM.

For COCc1ccccc1-c1ccc([C@H](C)Nc2nc(C)nc3cc(OC)c(OC)cc23)s1 (racemic) [Example 50, 6,7-dimethoxy-N-[1-{5-[2-(methoxymethyl)phenyl]thiophen-2-yl}ethyl]-2-methylquinazolin-4-amine], the IC50 [1] was 20 µM and the IC50 [2] was 9.85 µM.

COc1cc2nc(C)nc(N[C@@H](C)c3ccc(-c4cccc(C(=O)N(C)C)c4)s3)c2cc1OC (racemic) [Example 51, 3-(5-{1-[(6,7-dimethoxy-2-methylquinazolin-4-yl)amino]ethyl}thiophen-2-yl)-N,N-dimethylbenzamide] showed an IC50 [1] of 5.9 µM and an IC50 [2] of 5.63 µM.

COc1cc2nc(C)nc(N[C@@H](C)c3ccc(-c4ccc(CO)s4)s3)c2cc1OC (racemic) [Example 52, (5′-{1-[(6,7-dimethoxy-2-methylquinazolin-4-yl)amino]ethyl}-2,2′-bithiophen-5-yl)methanol] gave an IC50 [1] of 5.46 µM and an IC50 [2] of 4.29 µM.

Work on COc1cc2nc(C)nc(N[C@@H](C)c3ccc(-c4ccc5c(c4)OCCO5)s3)c2cc1OC (racemic) [Example 98, N-{1-[5-(2,3-dihydro-1,4-benzodioxin-6-yl)thiophen-2-yl]ethyl}-6,7-dimethoxy-2-methylquinazolin-4-amine] yielded an IC50 [2] of 16.1 µM.

COc1cc2nc(C)nc(N[C@@H](C)c3ccc(-c4ccc(-c5nnc(C)o5)cc4)s3)c2cc1OC (racemic) [Example 128, 6,7-dimethoxy-2-methyl-N-[1-{5-[4-(5-methyl-1,3,4-oxadiazol-2-yl)phenyl]thiophen-2-yl}ethyl]quinazolin-4-amine] gave an IC50 [1] of 16.9 µM and an IC50 [2] of 13.9 µM.

COc1cc2nc(C)nc(N[C@@H](C)c3ccc(-c4ccc(CNC(C)=O)cc4)s3)c2cc1OC (racemic) [Example 138, N-[4-(5-{1-[(6,7-dimethoxy-2-methylquinazolin-4-yl)amino]ethyl}thiophen-2-yl)benzyl)acetamide] gave an IC50 [1] of 7.43 µM and an IC50 [2] of 5.57 µM.

COc1cc2nc(C)nc(N[C@@H](C)c3ccc(-c4cccc(CNS(C)(=O)=O)c4)s3)c2cc1OC (racemic) [Example 139, N-[3-(5-{1-[(6,7-dimethoxy-2-methylquinazolin-4-yl)amino]ethyl}thiophen-2-yl)benzyl]methanesulfonamide] gave an IC50 [1] of 6.13 µM and an IC50 [2] of 4.7 µM.

Compound COc1cc2nc(C)nc(N[C@@H](C)c3ccc(-c4ccc(CNS(C)(=O)=O)cc4)s3)c2cc1OC (racemic) [Example 140, N-[4-(5-{1-[(6,7-dimethoxy-2-methylquinazolin-4-yl)amino]ethyl}thiophen-2-yl)benzyl]methanesulfonamide] has an IC50 [1] of 5.26 µM and an IC50 [2] of 5.33 µM.

With CCCNC(=O)c1ccc(-c2ccc([C@H](C)Nc3nc(C)nc4cc(OC)c(OC)cc34)s2)cc1 (racemic) [Example 141, 4-(5-{1-[(6,7-dimethoxy-2-methylquinazolin-4-yl)amino]ethyl}thiophen-2-yl)-N-propylbenzamide] the IC50 [3] was 11.1 µM and the IC50 [2] was 5.63 µM.

Work on COc1cc2nc(C)nc(N[C@@H](C)c3ccc(-c4cccc(OC(F)(F)F)c4)s3)c2cc1OC (racemic) [Example 151, 6,7-dimethoxy-2-methyl-N-[1-{5-[3-(trifluoromethoxy)phenyl]thiophen-2-yl}ethyl]quinazolin-4-amine] yielded an IC50 [3] of 13.3 µM and an IC50 [2] of 10.4 µM.

For COc1cc2nc(C)nc(N[C@@H](C)c3ccc(-c4ccc5c(c4)OCO5)s3)c2cc1OC (racemic) [Example 163, N-{1-[5-(1,3-benzodioxol-5-yl)thiophen-2-yl]ethyl}-6,7-dimethoxy-2-methylquinazolin-4-amine], the IC50 [2] was 13.6 µM.

In the case of COc1cccc(-c2ccc([C@H](C)Nc3nc(C)nc4cc(OC)c(OC)cc34)s2)c1 (racemic) [Example 167, 6,7-dimethoxy-N-{1-[5-(3-methoxyphenyl)thiophen-2-yl]ethyl}-2-methylquinazolin-4-amine], the IC50 [2] is reported as 16.9 µM.

With COc1cc2nc(C)nc(N[C@@H](C)c3ccc(-c4cccc(C(F)(F)F)c4)s3)c2cc1OC (racemic) [Example 168, 6,7-dimethoxy-2-methyl-N-[1-{5-[3-(trifluoromethyl)phenyl]thiophen-2-yl}ethyl]quinazolin-4-amine] the IC50 [2] was 12.2 µM.

— US20240083857A1, “2-Methyl-Quinazolines” (Bayer Pharma Aktiengesellschaft, priority 2017, published 2024)
